The source of these data is patent US5681823A, “P^1, P^4 -dithio-P^2 -P^3 -monochloromethylene 5', 5'"-diadenosine P^1, P^4 -tetraphosphate as antithrombotic agent” (PRP Inc., priority 1996, dated 1997).

As a reminder, the Ki is the equilibrium dissociation constant of an inhibitor or competing ligand from its target.

Data set [1] in a line: Distribution of ^125 I-labeled CHCl-AP4 A: plasma & washes. The data set is classed as binding, human. To be noted: 23 μM, 22° C., 30 minutes; mean of two. As to the method: (§1) There are, however, a variety of purinoceptors on other cell types. AP4 A analogues may bind not only to platelets but also to the erythrocytes and leukocytes when whole blood is treated with the agents. […] Platelets were separated by a gradual centrifugation, the packed red cells with buffy coats (leukocytes) were mixed, and fractionated by means of histopaque gradient separation (A. Boyum, Scand J. Clin. Lab. Invest. 21(suppl 97):77 (1968)). The cell fractions were washed twice and final suspensions were counted for cell number and the radioactivity. Percent distribution was calculated based on the CBC data of whole blood. Binding sites are expressed in the values per cells.

Data set [2] has as its system ADP-induced platelet aggregation. To be noted: reference agent, kinetic study demonstrated previously (PNAS 1992); read-out: inhibition constant (Ki); cited from earlier work.
For data set [3] the test system is unchanged. To be noted: Zamecnik '550 Table 3, read-out: ID50 (the source's name); cited from earlier work.
For the next data set, the system named is Platelets. The data set is described as follows: Distribution of ^125 I-labeled CHCl-AP4 A into blood cell fractions: platelets. It is filed as binding, human. As to the method: as §1
The next data set relates to Erythrocytes. The data set is described as follows: Distribution of ^125 I-labeled CHCl-AP4 A into blood cell fractions: erythrocytes. The data set is classed as binding, human. How it is done: as §1
[4] abbreviates: 23 μM, 22° C., 30 minutes, mean of two.

For the compound `Nc1ncnc2c1ncn2[C@@H]1O[C@H](COP(=O)(O)OP(=O)(O)C(Cl)P(=O)(O)OP(=O)(O)OC[C@H]2O[C@@H](n3cnc4c(N)ncnc43)[C@H](O)[C@@H]2O)[C@@H](O)[C@H]1O` (stereo partly drawn) [CHCl-AP4 A], the “Distribution (%)” value was determined as 95.5% in data set [1], 0.55% in the data set with Platelets (setting [4]) and 2.09% in the data set on Erythrocytes (setting [4]). Also, in data set [2], the inhibition constant Ki was 1100 nM. Further, the IC50 in data set [3] was 3000 nM. Also, the “Binding Sites” value in the data set on Platelets (gross estimation per cell) is given as 3.08 × 10^5 per cells; with Erythrocytes (gross estimation per cell), 5.98 × 10^4 per cells. Further, the binding sites per surface area, relative value in the data set on Platelets (relative, platelets) was 100; in the data set with Erythrocytes (relative, erythrocytes), 1.
